Results: PMC3388095, “Fluorophore Labeled Kinase Detects Ligands That Bind within the MAPK Insert of p38α Kinase” (PLoS ONE, 2012)
“And” between values parts separate entries of the source, which are not always exact repeats. Identical values can stand only once.

What was measured:
CDK2-Cyclin A = CDK2-Cyclin A (Homo sapiens, UniProt P24941); experiment: Kinase selectivity profile, 33P-ATP filter-binding assay; format: biochemical
Experimental: (§1) Figure 5 Kinase selectivity profile of 1b. Compound 1b was profiled against a selected panel of 95 different kinases at a concentration of 10 µM employing a radioactive (^33P-ATP) filter-binding assay (National Centre for Protein Kinase Profiling, Dundee). The numbers represent the remaining kinase activity in %. […] TEXT PRINTED IN THE PICTURE: no label printed: Aurora B: 53; MNK2: 67; MINK1: 69; HER4: 71; MKK1: 75; PKBβ: 75; PHK: 76; PIM2: 76; PIM3: 77; CHK2: 78; PKD1: 79; TBK1: 79; PAK4: 80; Lck: 80; GSK3β: 80; IGF-1R: 81; p38δ MAPK: 81; PIM1: 82; SRPK1: 83; SmMLCK: 83; MAPKAP-K3: 84; EPH A2: 85; MELK: 85; CK2: 85; CK1: 86; CAMK1: 86; PLK1: 87; MST2: 87; IR-HIS: 87; BTK: 87; HIPK1: 87; p38α MAPK: 88; DYRK2: 88; JNK3: 88; PAK5: 88; IKKε: 89; p38β MAPK: 89; NUAK1: 90; PAK2: 90; MNK1: 91; ERK8: 91; GCK: 91; PRAK: 91; MLK1: 92; SGK1: 92; PAK6: 92; TTK: 92; BRSK2: 92; MARK4: 93; CHK1: 93; RIPK2: 94; CDK2-Cyclin A: 94; JNK1: 94; AMPK: 94; VEG-FR: 95; DYRK1A: 95; CAMKKβ: 95; PKCα: 96; S6K1: 96; MSK1: 96; PKCz: 96; YES1: 96; RSK1: 97; IRAK4: 97; DYRK3: 97; IKKβ: 97; ERK2: 98; MLK3: 98; RSK2: 98; LKB1: 98; MAPKAP-K2: 98; ERK1: 99; FGF-R1: 99; SYK: 99; MST4: 99; MARK3: 99; MARK2: 100; PDK1: 100; JNK2: 101; HIPK2: 101; BRSK1: 102; EF2K: 102; PRK2: 103; Aurora A: 104; IRR: 104; CSK: 104; PKA: 104; NEK6: 105; p38γ MAPK: 105; Src: 107; PKBα: 109; ROCK 2: 109; EPH-B3: 112; HIPK3: 115; NEK2α: 119 DOUBTS OF THE COPYIST ABOUT THIS PICTURE: The picture prints no compound label and no measure or unit for the numbers; only the colour scale 'Inhibition weak/strong' is printed. / PKCz: the last letter may be z or ζ / NEK2α: the last letter may be a or α / IKKε: the last letter may be ε or e

RIPK2 = RIPK2 (Homo sapiens, UniProt O43353); experiment: as above; format: biochemical
Sequence of RIPK2 (O43353 whole entry): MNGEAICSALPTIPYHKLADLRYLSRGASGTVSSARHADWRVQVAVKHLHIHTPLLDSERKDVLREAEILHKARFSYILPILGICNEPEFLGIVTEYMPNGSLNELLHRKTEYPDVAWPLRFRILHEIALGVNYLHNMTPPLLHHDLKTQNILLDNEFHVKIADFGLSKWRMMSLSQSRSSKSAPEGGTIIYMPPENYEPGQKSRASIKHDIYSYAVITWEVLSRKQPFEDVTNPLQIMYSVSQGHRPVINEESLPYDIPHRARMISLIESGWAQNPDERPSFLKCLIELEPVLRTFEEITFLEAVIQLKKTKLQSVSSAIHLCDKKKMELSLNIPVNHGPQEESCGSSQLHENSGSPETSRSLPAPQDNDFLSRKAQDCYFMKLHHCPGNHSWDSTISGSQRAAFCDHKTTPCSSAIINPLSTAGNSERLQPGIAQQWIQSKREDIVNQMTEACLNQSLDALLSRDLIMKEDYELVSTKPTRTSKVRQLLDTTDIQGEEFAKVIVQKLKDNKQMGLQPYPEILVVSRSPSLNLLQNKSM
Experimental: as §1

MNK2 = MNK2 (Homo sapiens, UniProt Q9HBH9); experiment: as above; format: biochemical
Sequence of MNK2 (Q9HBH9 whole entry): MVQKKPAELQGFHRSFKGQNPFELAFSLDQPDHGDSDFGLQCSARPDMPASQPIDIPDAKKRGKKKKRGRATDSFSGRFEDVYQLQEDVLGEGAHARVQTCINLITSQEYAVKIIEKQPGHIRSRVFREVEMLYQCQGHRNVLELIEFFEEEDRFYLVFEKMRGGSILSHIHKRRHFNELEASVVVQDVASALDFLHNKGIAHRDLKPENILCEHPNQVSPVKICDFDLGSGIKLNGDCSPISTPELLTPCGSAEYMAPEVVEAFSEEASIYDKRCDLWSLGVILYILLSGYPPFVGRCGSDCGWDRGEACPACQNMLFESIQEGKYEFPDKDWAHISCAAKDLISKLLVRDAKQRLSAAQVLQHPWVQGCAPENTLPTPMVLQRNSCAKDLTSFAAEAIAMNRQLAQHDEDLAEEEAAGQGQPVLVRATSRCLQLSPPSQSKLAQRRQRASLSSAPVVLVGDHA
Experimental: as §1

MLK3 = MLK3 (Homo sapiens, UniProt Q16584); experiment: as above; format: biochemical
Sequence of MLK3 (Q16584 whole entry): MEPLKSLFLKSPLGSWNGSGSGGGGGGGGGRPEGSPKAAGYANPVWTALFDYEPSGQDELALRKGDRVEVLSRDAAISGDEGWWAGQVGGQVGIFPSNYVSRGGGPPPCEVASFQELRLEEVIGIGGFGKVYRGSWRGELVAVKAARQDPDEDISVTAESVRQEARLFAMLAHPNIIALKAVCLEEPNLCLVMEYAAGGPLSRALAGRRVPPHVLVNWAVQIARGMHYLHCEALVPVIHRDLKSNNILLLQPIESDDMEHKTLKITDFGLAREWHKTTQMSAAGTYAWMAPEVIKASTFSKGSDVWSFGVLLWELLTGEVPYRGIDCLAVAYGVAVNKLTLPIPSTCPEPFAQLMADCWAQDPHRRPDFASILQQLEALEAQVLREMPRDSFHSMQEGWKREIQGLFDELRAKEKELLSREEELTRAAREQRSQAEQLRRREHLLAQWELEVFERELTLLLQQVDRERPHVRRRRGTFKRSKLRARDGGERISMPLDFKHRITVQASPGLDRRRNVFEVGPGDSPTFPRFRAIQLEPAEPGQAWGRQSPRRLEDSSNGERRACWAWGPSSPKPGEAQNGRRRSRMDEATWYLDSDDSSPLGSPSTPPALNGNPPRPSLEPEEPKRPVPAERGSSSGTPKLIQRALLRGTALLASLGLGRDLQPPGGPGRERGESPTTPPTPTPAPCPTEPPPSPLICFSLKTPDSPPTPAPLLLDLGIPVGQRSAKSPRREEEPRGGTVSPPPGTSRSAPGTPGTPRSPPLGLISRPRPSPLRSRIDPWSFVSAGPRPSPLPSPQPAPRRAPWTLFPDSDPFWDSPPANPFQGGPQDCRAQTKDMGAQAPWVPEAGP
Experimental: as §1

HIPK2 = HIPK2 (Homo sapiens, UniProt Q9H2X6); experiment: as above; format: biochemical
Sequence of HIPK2 (Q9H2X6 whole entry): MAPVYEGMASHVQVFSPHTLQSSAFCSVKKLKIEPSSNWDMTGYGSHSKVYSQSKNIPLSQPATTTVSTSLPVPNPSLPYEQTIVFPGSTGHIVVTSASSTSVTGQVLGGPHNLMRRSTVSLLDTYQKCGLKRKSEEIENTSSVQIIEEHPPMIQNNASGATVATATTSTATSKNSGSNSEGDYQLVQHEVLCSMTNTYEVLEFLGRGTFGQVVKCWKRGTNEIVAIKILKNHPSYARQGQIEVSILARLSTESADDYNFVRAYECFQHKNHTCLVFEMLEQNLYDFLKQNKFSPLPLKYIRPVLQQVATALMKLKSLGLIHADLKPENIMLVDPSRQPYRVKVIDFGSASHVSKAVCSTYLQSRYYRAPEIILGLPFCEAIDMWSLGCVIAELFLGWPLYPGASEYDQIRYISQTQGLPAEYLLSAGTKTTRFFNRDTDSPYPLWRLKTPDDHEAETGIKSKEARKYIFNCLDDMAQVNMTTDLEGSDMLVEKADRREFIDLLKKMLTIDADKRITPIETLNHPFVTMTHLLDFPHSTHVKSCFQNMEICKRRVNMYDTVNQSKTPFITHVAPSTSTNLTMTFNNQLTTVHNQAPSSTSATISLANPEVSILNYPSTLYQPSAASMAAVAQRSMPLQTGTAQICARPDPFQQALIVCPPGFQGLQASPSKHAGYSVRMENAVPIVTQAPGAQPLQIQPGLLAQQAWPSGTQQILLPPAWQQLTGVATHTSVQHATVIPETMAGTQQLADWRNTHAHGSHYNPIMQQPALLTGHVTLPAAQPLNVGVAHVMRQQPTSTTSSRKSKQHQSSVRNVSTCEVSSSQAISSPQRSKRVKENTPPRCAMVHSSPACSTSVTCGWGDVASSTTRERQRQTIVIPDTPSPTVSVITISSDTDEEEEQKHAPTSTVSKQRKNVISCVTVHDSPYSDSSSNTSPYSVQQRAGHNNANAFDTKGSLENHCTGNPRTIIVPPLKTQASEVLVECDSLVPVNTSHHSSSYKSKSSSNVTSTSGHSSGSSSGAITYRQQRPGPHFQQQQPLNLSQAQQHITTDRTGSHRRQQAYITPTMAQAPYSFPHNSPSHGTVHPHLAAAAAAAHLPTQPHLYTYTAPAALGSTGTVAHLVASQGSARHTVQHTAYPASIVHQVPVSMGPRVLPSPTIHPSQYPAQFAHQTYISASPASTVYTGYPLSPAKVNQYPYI
Experimental: as §1

ERK8 = ERK8 (Homo sapiens, UniProt Q8TD08); experiment: as above; format: biochemical
Sequence of ERK8 (Q8TD08 whole entry): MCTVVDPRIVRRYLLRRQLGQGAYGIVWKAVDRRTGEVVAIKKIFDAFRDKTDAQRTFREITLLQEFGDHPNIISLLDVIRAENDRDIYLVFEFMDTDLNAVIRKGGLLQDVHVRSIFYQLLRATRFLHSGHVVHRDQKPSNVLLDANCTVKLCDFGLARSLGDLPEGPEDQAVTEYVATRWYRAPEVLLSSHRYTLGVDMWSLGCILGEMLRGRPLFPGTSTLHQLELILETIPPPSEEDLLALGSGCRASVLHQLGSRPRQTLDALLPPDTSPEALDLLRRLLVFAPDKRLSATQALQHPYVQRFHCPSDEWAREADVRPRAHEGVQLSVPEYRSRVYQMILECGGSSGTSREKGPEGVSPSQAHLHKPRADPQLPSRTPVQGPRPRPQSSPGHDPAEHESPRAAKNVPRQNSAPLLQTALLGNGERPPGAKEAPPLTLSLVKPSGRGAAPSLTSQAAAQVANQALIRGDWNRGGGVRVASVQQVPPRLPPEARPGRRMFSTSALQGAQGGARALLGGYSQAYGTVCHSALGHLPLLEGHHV
Experimental: as §1

MNK1 = MNK1 (Homo sapiens, UniProt Q9BUB5); experiment: as above; format: biochemical
Sequence of MNK1 (Q9BUB5 whole entry): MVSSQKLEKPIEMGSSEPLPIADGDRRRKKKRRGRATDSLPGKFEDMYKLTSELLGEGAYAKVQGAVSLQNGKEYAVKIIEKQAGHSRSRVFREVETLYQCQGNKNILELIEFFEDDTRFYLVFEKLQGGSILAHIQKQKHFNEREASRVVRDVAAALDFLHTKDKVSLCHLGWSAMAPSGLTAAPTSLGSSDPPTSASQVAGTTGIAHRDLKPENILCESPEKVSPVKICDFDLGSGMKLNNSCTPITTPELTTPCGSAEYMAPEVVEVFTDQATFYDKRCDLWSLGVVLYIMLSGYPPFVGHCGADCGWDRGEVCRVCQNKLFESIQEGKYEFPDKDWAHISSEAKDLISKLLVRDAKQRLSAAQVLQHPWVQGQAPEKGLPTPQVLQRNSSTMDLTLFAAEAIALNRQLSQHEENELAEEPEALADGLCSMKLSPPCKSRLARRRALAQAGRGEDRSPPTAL
Experimental: as §1

[1] = tested on: panel of 95 different kinases; experiment: Kinase selectivity profile, 33P-ATP filter-binding assay (whole panel); format: biochemical; settings: 10 µM; 95 kinases
Experimental: Figure 5 Kinase selectivity profile of 1b. Compound 1b was profiled against a selected panel of 95 different kinases at a concentration of 10 µM employing a radioactive (^33P-ATP) filter-binding assay (National Centre for Protein Kinase Profiling, Dundee). The numbers represent the remaining kinase activity in %. […]

p38α = experiment: glycine-rich loop FLiK binding assay (library screen); settings: initial library screen
p38α MAPK insert = target: T1, p38α MAPK insert (Homo sapiens, UniProt Q16539, C119S/C162S/S252C); experiment: FLiK direct binding assay, acrylodan-labeled p38α (S252C) MAPK insert / lipid binding site; settings: binding to p38α MAPK insert; ratiometric acrylodan emission; each concentration in triplicate
T1 construct: His-tag with PreScission Protease cleavage site (N); made in house; host or cells: E. coli BL21(DE3) Codon+RIL
T1 sequence (Q16539 whole entry C119S/C162S/S252C): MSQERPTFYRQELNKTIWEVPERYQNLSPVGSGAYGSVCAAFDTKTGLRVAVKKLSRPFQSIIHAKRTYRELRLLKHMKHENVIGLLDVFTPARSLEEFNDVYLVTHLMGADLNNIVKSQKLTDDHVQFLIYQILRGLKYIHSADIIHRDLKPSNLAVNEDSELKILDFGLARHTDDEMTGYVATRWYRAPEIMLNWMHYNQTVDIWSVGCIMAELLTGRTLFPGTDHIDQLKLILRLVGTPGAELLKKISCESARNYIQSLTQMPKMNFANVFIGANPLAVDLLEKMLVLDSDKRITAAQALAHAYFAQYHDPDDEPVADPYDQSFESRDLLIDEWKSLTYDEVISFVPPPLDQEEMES
Experimental: The human p38α kinase construct containing the mutations required for specific labeling (C119S/C162S/S252C) as well as wild type p38α were cloned into a pOPINF vector and transformed as an N-terminal His-tag construct with a PreScission Protease cleavage site into BL21(DE3) Codon+RIL E. coli. Protein expression, purification, fluorophore labeling and verification of mono-labeling of the kinase were performed essentially as described previously. Labeling of the mutant p38α protein with thiol-reactive acrylodan was carried out by adding a 1.5∶1 molar excess of the fluorophore (dissolved in DMSO) to the purified protein in 50 mM Hepes Buffer (pH 7.0). The mixture was allowed to react in the dark overnight at 4°C. Unreacted acrylodan was subsequently removed by three cycles of buffer exchange into FLiK Measurement Buffer (50 mM Hepes Buffer, pH 7.4+200 mM NaCl) using a 10k-MWCO Centricon. The protein was concentrated to ∼200 μM, aliquoted and frozen at −80°C. Mono-labeling of the protein was verified by ESI-MS as described previously, [24].
Characterization of the fluorescence response of MAP insert-labeled p38α was carried out as described previously for p38α labeled on the activation loop. […] Briefly, a polystyrene cuvette containing a suspension of 50 nM acrylodan-labeled p38α in FLiK Buffer was excited at 386 nm and emission spectra were measured in the absence and presence of increasing concentrations of 1b. The compound was dissolved in 100% DMSO and delivered in sequential small doses to a single sample. […] Ratiometric fluorescence readouts are advantageous in that they provide an internal correction for small errors in sample volume which can affect signal intensity. All measurements of the cuvettes were made with a JASCO FP-6500 fluorescence spectrophotometer (JASCO GmbH, Germany).
The assay was adapted to high-throughput screening formats which enabled KD values to be determined in black small volume assay plates. Briefly, a dilution series of each compound was first prepared in 100% DMSO at 20X the desired final concentration and 1 μL was transferred to the assay plate. Compounds were then mixed with 19 µL of FLiK Buffer (supplemented with 0.01% Triton X-100) containing acrylodan-labeled p38α (100 nM). The final concentration of compound in the dilution series ranged from 0–50 μM (5% v/v DMSO final). Plates were covered with an adhesive aluminum foil and incubated for 30 min at RT prior to measurement of emission intensities at 470 and 520 nm using a Tecan Safire^2 plate reader. […] Binding curves were plotted using the ratio R = I520/I470 to determine the KD.

Nc1ccc2c(NC3CC3)nc(-c3ccccc3)nc2c1 [1b, N^4-Cyclopropyl-2-phenyl-4,7-quinazolinediamine]
remaining activity at 10 µM (CDK2-Cyclin A): 94%
remaining activity at 10 µM (RIPK2): 94%
remaining activity at 10 µM (MNK2): 67%
remaining activity at 10 µM (MLK3): 98%
remaining activity at 10 µM (HIPK2): 101%
remaining activity at 10 µM (ERK8): 91%
remaining activity at 10 µM (MNK1): 91%
inhibition of enzymatic activity across kinase panel [1]: does not inhibit enzymatic activity of any of the tested kinases
binding detected by glycine-rich loop FLiK assay (p38α): weakly detected
Kd (p38α MAPK insert): ~2400 nM and 2400 nM
